Test results: patent publication US5322698A, “Process for the preparation of a tablet or dragee composition containing a heat-, light- and moisture-sensitive active ingredient having monoclinic crystal structure” (priority 1990, dated 1994)
Counter-ions that a name gives are not always drawn. Like-named read-outs stand apart in the source and are kept apart here. One block for each compound: values may come before it.

Key:
[1] = Clinical investigations: half life in blood and relative bioavailability; type: in vivo, human; details: for half-life: human, blood, read-out: half life measured in the blood (converted)
[2] = Storage experiments in the presence of moisture, heat and light load (wet-granulated tablets); type: physicochemical; details: in the wet-granulated tablet of Comparative Example 1
Excerpt: The tablets obtained were subjected to storage experiments carried out in the presence of moisture and heat as well as light load.

[3] = antiarrhythmic reference drugs; Welling et al. 1985; cited from earlier work

relative bioavailability ([1]; composition according to the invention, clinical): about 80%
half-life ([1]; composition according to the invention): 3.2 h
half-life ([1]; injectable composition containing the same active ingredient): 2.4 h
SMILES: Cc1cccc(C)c1NNC(=N)N(C)C [1-(2,6-Dimethylphenyl)-4,4'-dimethylaminoguanidine hydrochloride]

prevention of decomposition process by antioxidant [2]: could not be prevented by ascorbic acid
SMILES: O=C1O[C@H]([C@@H](O)CO)C(O)=C1O [ascorbic acid]

SMILES: C=C[C@H]1C[N@@]2CC[C@H]1C[C@@H]2[C@@H](O)c1ccnc2ccc(OC)cc12 [quinidine]
bioavailability [3]: 40 to 70%
